For orientation: half-life means the time needed for the level to fall by half in the phase considered. Low values mean rapid decline, high ones slow decline.

Structures can show the parent of a compound that is named as a salt.

The nature of data set [1]: In vitro flux of pergolide through human cadaver epidermis in diffusion cells at 35° C. In kind it is in vitro ADME. The settings on record: 2% by weight in water donor, no permeation enhancer, over a period of 50 hours. As to the method:
Several test samples were made to measure the flux of pergolide base and mesylate through human cadaver epidermis from donor vehicles containing the pergolide base or mesylate mixed with water alone, water and ethanol, or mineral oil alone as shown in Table 1. Transdermal fluxes were obtained using human epidermis at 35° C. in standard diffusion cells. FIGS. 5 and 6 graphically depict the results.
Circular pieces of human epidermis were placed with stratum corneum facing up. The release liner of the laminate was removed and the system was centered over the stratum corneum side of the epidermis. The edges of epidermis were then folded around the system. This assembly was then mounted on a Teflon rod. A known volume of receptor solution was then placed in a test tube and was equilibrated at 35° C. The Teflon rod with system and epidermis attached was then placed in a water bath at 35° C. Mixing was accomplished by attachment to a motor which caused constant vertical mixing.
At given time intervals, the entire receptor solution was removed from the test tubes and replaced with an equal volume of fresh receptor solutions previously equilibrated at 35° C. The receptor solutions are stored in capped vials at room temperature until assayed for pergolide content by HPLC. From the drug concentration and the volume of the receptor solutions, the area of permeation and the time interval, the flux of the drug through the epidermis was calculated as follows: (drug concentration X volume of receptor)/(area x time)=flux (μg/cm^2·hr).

The nature of data set [2]: Plasma terminal half-life of pergolide administered transdermally. In kind it is in vivo. As to conditions: human, topical or ocular.

With `CCCN1C[C@H](CSC)C[C@@H]2c3cccc4[nH]cc(c34)C[C@H]21` [pergolide mesylate, 8-[(methylthiolmethyl]6-propylergoline monomethanesulfonate)], the results for the “average baseline skin flux” value in data set [1] and in data set [1] (listed as pergolide6mesylate) were “approximately 1.1 μg/cm^2·hr” and “about 1.1 μg/cm^2·hr”, respectively. Consider `CCCN1CC(CSC)C[C@@H]2c3cccc4[nH]cc(c34)C[C@H]21` (some centres unmarked) [pergolide base, 8-[(methylthio)methyl]-6-propylergoline], for which the “average baseline skin flux” value in data set [1] is “approximately 0.3 μg/cm^2·hr”; in data set [1] (listed as pergolide. base), “about 0.3 μg/cm^2·hr”. Take `CCCN1CC(CSC)C[C@@H]2c3cccc4[nH]cc(c34)C[C@H]21` (some centres unmarked) [pergolide, 8-[(methylthio)methyl]-6-propylergoline]: the half-life in data set [2] is 5 to 10 h.

For the origin of these results see patent US6572879B1, “Formulations for transdermal delivery of pergolide” (Alza Corporation, priority 1995, dated 2003).
